Data published in patent publication US20250163116A1, “NEW METHOD TO TREAT INFECTIOUS DISEASES” (INSERM (INSTITUT NATIONAL DE LA SANTÉ ET DE LA RECHERCHE …, priority 2022, published 2025).

Columns and labels:
[1] = test system: HDMECs infected with Nm 2C4.3; test: Integrity of HDMEC monolayers infected with N. meningitidis (VE-cadherin at intercellular junctions, immunofluorescence); assay type: cell-based, human; conditions: 1 μg/mL added 30 min after initiation of Nm infection, 2 h 30
Procedure: FIG. 1. Exogenous ANGPTL4 exerts protective effects on dermal microvascular endothelial cells infected by N. meningitidis. A. HDMECs were infected with Nm 2C4.3 for 30 min and treated with 1 μg/mL of recombinant human ANGPTL4 for 2 h 30. Cells were fixed and stained for cellular actin, VE-cadherin and DAPI and analyzed by fluorescent microscopy. Quantifications of VE-cadherin enrichment at intercellular junctions and of intercellular spaces area were performed on 30 fields with Image J software. Kruskal-Wallis test ** P<0.001; P<0.0001. B. HDMEC were either uninfected or infected with N. meningitidis 2C4.3 for 30 min and treated with 1 μg mL−1 of recombinant human ANGPTL4, its N-terminal portion (nANGPTL4) or its C-terminal portion (cANGPTL4) for 2 h 30. Caspase-3/7 reagent was added to detect apoptosis in real time over 9 h using the IncuCyte® Live-Cell Analysis System
FIG. 2: Vascular protection is conferred by the N-terminal part of ANGPTL4. A, Schematic representation of ANGPTL4 structure. ANGPTL4 contains a N-terminal portion (nANGPTL4, aa 26-164) linked to a C-terminal portion (cANGPTL4, aa 164-406) by a cleavable linker. nANGPTL4 contains a highly conserved lipoprotein lipase (LPL) binding domain (aa 44-55), two cysteines on position 76 and 80 involved in protein oligomerization and a coiled-coil domain (aa 100-143). The C-terminal portion encodes a fibrinogen-like domain. B, HDMECs were infected with Nm 2C4.3 for 30 min and treated with 1 μg/mL of recombinant human ANGPTL4, nANGPTL4 or cANGPTL4 for 2 h 30. Cells were fixed and stained for cellular actin, VE-cadherin and DAPI and analyzed by fluorescent microscopy. B. Quantifications of VE-cadherin enrichment at intercellular junctions and of intercellular spaces area were performed on 30 fields with Image J software. Kruskal-Wallis test ** P<0.001, *** P<0.0001 of four independent experiments performed in triplicate.
FIG. 3: Vascular protection is conferred by a novel binding motif (aa 66-80) present in the N-terminal part of ANGPTL4. A, the indicated peptides were derived from nANGPTL4. B, HDMECs were infected with Nm 2C4.3 for 30 min and treated with 1 μg/mL of each peptides. Quantifications of VE-cadherin enrichment at intercellular junctions was performed on 30 fields with Image J software.
FIG. 4: Vascular protection is conferred by interaction of nANGPTL4 with Syndecan-4. A, HDMECs were infected with Nm 2C4.3 for 30 min and treated with 1 μg/mL of recombinant human ANGPTL4, nANGPTL4 or cANGPTL4 in the absence or in the presence of anti-SDC4 antibody for 2 h 30. Cells were fixed and stained for cellular actin, VE-cadherin and DAPI and analysed by fluorescent microscopy. Quantifications of VE-cadherin enrichment at intercellular junctions and of intercellular spaces area were performed on 30 fields with Image J software. Kruskal-Wallis test ** P<0.001, **** P<0.00001, ns1 P=0.2172; ns2 P>0.999 of four independent experiments performed in triplicate. B, HDMECs were transfected with small interfering RNA (siRNA) against SDC4 or non-targeting siRNA controls for 48 h, infected with Nm 2C4.3 for 30 min and treated with 1 μg/mL of recombinant human ANGPTL4, for 2 h 30. Quantifications of VE-cadherin enrichment at intercellular junctions and of intercellular spaces area were performed on 30 fields with Image J software. Kruskal-Wallis test ** P<0.001, *** P<0.0001, of two independent experiments performed in triplicate.
The day of infection, a suspension of the bacteria from an overnight culture on GCB agar plate was adjusted to OD600=0.05 and incubated for 2 h at 37° C. in a pre-warmed cell culture medium. Cells were infected with bacteria at a multiplicity of infection (MOI) of 100 bacteria per cell (OD=0.1) for 30 minutes, washed twice to remove non-adherent bacteria and infection was allowed to proceed for various periods of time. Cells were then washed and fixed in 4% paraformaldehyde for immunofluorescence analysis. […]

[2] = test system: SCID mice grafted with human skin infected with Nm 2C4.3; test: Vascular lesions in SCID mice grafted with human skin infected with N. meningitidis (4 h); assay type: in vivo; conditions: data not shown
Procedure: FIG. 7: ANGPTL4 reduces signs of thrombosis, vascular injury and inflammation. A-D, SCID mice grafted with human skins were infected intravenously with Nm 2C4.3 wild-type strain (5×10^6 bacteria) or left uninfected. A period of 30 min or 2 h after bacterial challenge, mice received 1 μg of recombinant human ANGPTL4, nANGPTL4 or cANGPTL4 intravenously or the vehicle as a control. Mice were killed at 4 h post-challenge. This experiment was performed twice with n=3 or 4 mice per group, using skin from two different donors. A, A schematic representation of the protocols used in vivo. B, Control bacteraemia 4 h post-infection (mean±s.e.m.). C, Bacterial colonization within the skin grafts as assessed by immunofluorescence analysis was quantified using ImageJ software as the ratio between bacterial surface colonization and the lumen surface of the vessels. A total of 30-50 vessels per mouse were analysed. Error bars show mean±s.e.m. D, Thrombus formation within the skin grafts was assessed by immunofluorescence analysis and quantified using ImageJ as the ratio between thrombus surfaces and the lumen surface of the vessels. A total of 30-50 vessels per mouse were analysed. Error bars show mean±s.e.m.; *** P<0.0001; ns P=0.0541 two-tailed Student's t-test.
Six-week-old CB17/Icr-Prkdcscid female mice were obtained from Janvier Labs. Human skin tissues were obtained from adult patients undergoing plastic surgery in the Service de Chirurgie Plastique et Reconstructive of the Groupe Hospitalier Saint-Joseph. […] Experimental procedures were performed as previously described in accordance with the guidelines of the Institut National de la Santé et de la Recherche Médicale and conformed to the European ethical legislation (Directive 2010/63/EU). The experimental protocol was approved by the Animal Experimentation Ethics Committee of the Université Paris Descartes (consent forms CEEA34.O.J.L.039.12 and 2018012515596498). […]. A skin flap was created and a full thickness human skin graft was placed onto the wound bed. The transplants were held in place with 6-0 non-absorbable monofilament suture materials, and the flap was then sutured above the transplant. Grafted mice were infected 4-6 weeks after human skin transplantation. N. meningitidis was grown overnight at 37° C. on GCB agar plates prepared without iron and supplemented with 15 μM deferoxamine (Desferal, Novartis). Bacterial colonies were harvested and cultured in RPMI media with 1% BSA medium and 0.06 μM deferoxamine with gentle agitation to reach the exponential phase of growth. Bacteria were then resuspended in physiological saline solution. Mice were infected intravenously with 200 μl (5×10^6 bacteria) of this bacterial suspension. A 10 mg dose of human holotransferrin (R&D Systems) was administered intraperitoneally just before infection. Mice were killed at 4 h after infection. Human skin grafts were carefully collected using a sterile cutter. The tissue was washed in PBS and fixed overnight at 4° C. in 4% paraformaldehyde in phosphate buffer. After washing in phosphate buffer, the specimens were embedded in OCT medium and then frozen at −80° C. Sections of the dermis (7 μm thick) were immobilized on Superfrost Plus microscope slides and subjected to immunofluorescence analysis. Sections were incubated with the primary antibodies for 1 h in PBS/3% BSA then DAPI was added to Alexa-conjugated secondary antibodies for 1 h. After additional washing, coverslips were mounted in glycergel (Dako) and were further analysed using a slide scanner (Lamina, Perkin Elmer). Analysis of the images was performed using ImageJ software (NIH). […]

Molecule	protective effect on monolayer integrity (adherens junctions, cell detachment) of infected HDMECs [1]	protective effects on vascular alteration, thrombosis or the release of inflammatory markers [2]
LSALERRLSA (Peptide P8)	no effect	–
LSALERRLSACGS [Peptide P12]	inhibits infection-induced damages	–
PEVLHSLQTQLKAQNSRIQQLFHKVAQQQRHLEKQHLRIQHLQSQFGLLD (Peptide P2)	no significant effect	–
QLSALERRLSACGSAC (Peptide P6)	completely inhibited infection-induced damages	–
REHAERTRSQLSALERRL (Peptide P5)	no effect	–
REHAERTRSQLSALERRLSACGSACQGT (Peptide P4)	as efficient as P1 in providing protection	–
RTRSQLSALERRLSA (Peptide P7)	no effect	–
SALERRLSACGSAC [Peptide P13]	inhibits infection-induced damages	–
WDEMNVLAHGLLQLGQGL (Peptide P3)	no protective effects	–
WDEMNVLAHGLLQLGQGLREHAERTRSQLSALERRLSAAGSAAQGT (Peptide P1 C76A, C80A) [Peptide P1 C76A/C80A]	efficiently provided cytoprotection to infection-induced damages	–
rhANGPTL3: recombinant human ANGPTL3 (3829-AN) from R&D Systems (protein, UniProt Q9Y5C1 17-460, looked up) Angiopoietin-related protein 3: SRIDQDNSSFDSLSPEPKSRFAMLDDVKILANGLLQLGHGLKDFVHKTKGQINDIFQKLNIFDQSFYDLSLQTSEIKEEEKELRRTTYKLQVKNEEVKNMSLELNSKLESLLEEKILLQQKVKYLEEQLTNLIQNQPETPEHPEVTSLKTFVEKQDNSIKDLLQTVEDQYKQLNQQHSQIKEIENQLRRTSIQEPTEISLSSKPRAPRTTPFLQLNEIRNVKHDGIPAECTTIYNRGEHTSGMYAIRPSNSQVFHVYCDVISGSPWTLIQHRIDGSQNFNETWENYKYGFGRLDGEFWLGLEKIYSIVKQSNYVLRIELEDWKDNKHYIEYSFYLGNHETNYTLHLVAITGNVPNAIPENKDLVFSTWDHKAKGHFNCPEGYSGGWWWHDECGENNLNGKYNKPRAKSKPERRRGLSWKSQNGRLYSIKSTKMLIHPTDSESFE	no protective effect	no protective effects
rhANGPTL8: recombinant human ANGPTL8 (9983-AN) from R&D Systems (protein, UniProt Q6UXH0 22-198, looked up) Angiopoietin-like protein 8: APMGGPELAQHEELTLLFHGTLQLGQALNGVYRTTEGRLTKARNSLGLYGRTIELLGQEVSRGRDAAQELRASLLETQMEEDILQLQAEATAEVLGEVAQAQKVLRDSVQRLEVQLRSAWLGPAYREFEVLKAHADKQSHILWALTGHVQRQRREMVAQQHRLRQIQERLHTAALPA	no protective effect	no protective effects
